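Method: 48-hour compound exposure of cells in 96-well plates, five concentrations, linear interpolation of endpoints. At the GI50, growth is halved. Definition used: TGI = concentration required for complete inhibition of growth.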

For 14 compounds, TGI and GI50 results are on record in PubChem BioAssay (NCI).

Among the test systems are MOLT-4 leukemia; SF-295 CNS; LOX IMVI melanoma; U251 CNS; HCT-116 colon; SNB-75 CNS; ACHN renal; NCI/ADR-RES ovarian; DU-145 prostate; HS 578T breast.
Common to all, as to test: NCI tumour cell line growth inhibition, 48 h

In the case of `O=C(CCc1nnc2s/c(=C\c3ccc([N+](=O)[O-])cc3)c(=O)n12)Nc1ccc(Cl)c(Cl)c1`, the TGI with MOLT-4 leukemia is 51.5 µM; in the experiment on SF-295 CNS, 58.4 µM; in the experiment on LOX IMVI melanoma it was 31.9 µM; in the experiment with U251 CNS it was 31.2 µM; with HCT-116 colon, above 100 µM; in the experiment with SNB-75 CNS, 28 µM. For the same compound, the TGI with ACHN renal was above 100 µM.
`C[C@@H]1C(=O)CC2C(C)(C)CCC[C@]2(C)[C@@]12CC[C@]1(C=COC1)O2` (stereo partly drawn): the TGI was 42.9 µM with MOLT-4 leukemia; above 100 µM in the experiment with SF-295 CNS; above 100 µM in the experiment with LOX IMVI melanoma; above 100 µM in the experiment on HCT-116 colon; above 100 µM in the experiment on ACHN renal.
In the case of `CN(C)CC1CC/C(=C\c2ccc(Cl)c(Cl)c2)C1=O` (stereo not drawn), the TGI with MOLT-4 leukemia is 19 µM; in the experiment on SF-295 CNS it was above 78.4 µM; with LOX IMVI melanoma, 18.4 µM; in the experiment on U251 CNS it was above 56.5 µM; with HCT-116 colon, above 61.7 µM; with SNB-75 CNS, above 66.6 µM. The compound also yielded a TGI in the experiment on ACHN renal above 62.5 µM.
As to `Cn1cc(C2NC(=O)c3ccccc3N2)c2ccccc21` (stereo not drawn), the TGI in the experiment on NCI/ADR-RES ovarian was 2.49 µM; in the experiment on LOX IMVI melanoma it was above 89.8 µM; in the experiment with U251 CNS it was 6.27 µM; with HCT-116 colon, above 20.4 µM; in the experiment with ACHN renal it was above 92.8 µM.
Regarding `O=c1nc2n(-c3cccc(Cl)c3)c3ccc([N+](=O)[O-])cc3cc-2c(=O)[nH]1`, the GI50 is 6.15 µM in the experiment with NCI/ADR-RES ovarian; 2.02 µM in the experiment on MOLT-4 leukemia; 4.92 µM with SF-295 CNS; 1.93 µM in the experiment with LOX IMVI melanoma; 2.63 µM with U251 CNS; 1.53 µM in the experiment on HCT-116 colon. For the same compound, the GI50 in the experiment on DU-145 prostate is 6.73 µM; with SNB-75 CNS it was 11.7 µM; in the experiment on ACHN renal it was 5.32 µM. The TGI in the experiment with NCI/ADR-RES ovarian is 19.7 µM; in the experiment on MOLT-4 leukemia, above 25 µM; with SF-295 CNS it was 10.9 µM; in the experiment on LOX IMVI melanoma it was 9.52 µM; with U251 CNS, above 25 µM; in the experiment with HCT-116 colon, 5.68 µM. The TGI in the experiment on DU-145 prostate is above 25 µM; with SNB-75 CNS, above 25 µM; in the experiment on ACHN renal, 16 µM.
With `Cc1c(C(Cc2ccccc2N(C)C(=O)/C=C\C(=O)O)c2c[nH]c3ccccc23)c2ccccc2n1C` (stereo not drawn), the TGI with MOLT-4 leukemia is 53.8 µM; in the experiment on SF-295 CNS it was 28.8 µM; in the experiment with LOX IMVI melanoma it was 29.2 µM; in the experiment on U251 CNS, 30.3 µM; in the experiment with HCT-116 colon it was 28.4 µM; in the experiment with SNB-75 CNS it was 33.7 µM. The same compound came in with a TGI in the experiment with ACHN renal of 34.3 µM.
As to `COc1ccc2c(c1)[C@@H](NC(C)=O)CCc1cc(OC)c(OC)c(OC)c1-2`, the TGI is above 42.5 µM in the experiment on MOLT-4 leukemia; above 100 µM in the experiment on HS 578T breast; below 0.215 µM with SF-295 CNS; above 75.6 µM with LOX IMVI melanoma; 2.02 µM with U251 CNS; 0.528 µM in the experiment with HCT-116 colon. Besides, the values for the TGI with DU-145 prostate, in the experiment on SNB-75 CNS and in the experiment on ACHN renal were 0.0433 µM, 12.9 µM and above 100 µM, respectively.
Consider `NC1=C(O)c2cccc3cccc(c23)C1=O`, for which the TGI in the experiment with MOLT-4 leukemia, with SF-295 CNS, in the experiment with LOX IMVI melanoma, in the experiment on U251 CNS, in the experiment with HCT-116 colon and in the experiment with SNB-75 CNS was above 100 µM each time. This compound also returned a TGI in the experiment on ACHN renal above 100 µM.
Consider `CC(C)=CCc1cc2c(cc1O)C1=C(C(=O)C3=C(NCCS3(=O)=O)C1=O)C(C=C(C)C)O2` (stereo not drawn), for which the GI50 in the experiment with NCI/ADR-RES ovarian is above 16.7 µM; in the experiment with MOLT-4 leukemia, 3.16 µM; with HS 578T breast, 4.85 µM; in the experiment with SF-295 CNS, above 16.7 µM; with LOX IMVI melanoma, 4.48 µM; in the experiment with U251 CNS, 4.19 µM. In addition, the GI50 was 5.84 µM with HCT-116 colon, 10.8 µM in the experiment with SNB-75 CNS and 10.7 µM in the experiment on ACHN renal. Also, the TGI in the experiment on NCI/ADR-RES ovarian was above 16.7 µM; with MOLT-4 leukemia it was 12.2 µM; in the experiment on HS 578T breast, above 16.7 µM; with SF-295 CNS, above 16.7 µM; in the experiment with LOX IMVI melanoma, above 16.7 µM; in the experiment on U251 CNS, 13.9 µM. Further, the TGI with HCT-116 colon, in the experiment on SNB-75 CNS and in the experiment on ACHN renal was above 16.7 µM each time.
For `Cc1cc(N(CCC#N)CCC#N)ccc1/C=C(\NC(=O)/C=C/c1ccccc1)C(=O)N=[N+]=[N-]`, the TGI was above 100 µM with MOLT-4 leukemia; above 100 µM in the experiment on SF-295 CNS; above 100 µM with LOX IMVI melanoma; above 100 µM with U251 CNS; above 100 µM in the experiment on HCT-116 colon; 62 µM with SNB-75 CNS. Besides, in the experiment on ACHN renal, the TGI is above 100 µM.
For the compound `CN(C)CCC(N)(P(=O)([O-])[O-])P(=O)([O-])[O-].N.N.[Pt+2]`, the GI50 in the experiment with MOLT-4 leukemia, in the experiment with SF-295 CNS, in the experiment on LOX IMVI melanoma, in the experiment with U251 CNS, in the experiment with HCT-116 colon and with SNB-75 CNS was above 100 µM throughout. Besides, in the experiment on ACHN renal, the GI50 is above 100 µM. For the same compound, the TGI in the experiment on MOLT-4 leukemia, in the experiment on SF-295 CNS, with LOX IMVI melanoma, in the experiment with U251 CNS, in the experiment with HCT-116 colon and with SNB-75 CNS was above 100 µM each time. Further, the TGI in the experiment on ACHN renal is above 100 µM.
`O=S1OC(c2ccccc2)(c2ccccc2)C(c2ccccc2)(c2ccccc2)O1`: the TGI in the experiment on MOLT-4 leukemia, in the experiment with SF-295 CNS, in the experiment with LOX IMVI melanoma, in the experiment on U251 CNS, in the experiment on HCT-116 colon and in the experiment on SNB-75 CNS was above 100 µM throughout. The compound further showed a TGI with ACHN renal above 100 µM.
With `N#CC(C(=O)CCCC(=O)Nc1ccccc1[N+](=O)[O-])c1c(Cl)cccc1Cl` (stereo not drawn), the TGI in the experiment on MOLT-4 leukemia, in the experiment with SF-295 CNS, in the experiment with U251 CNS, in the experiment with HCT-116 colon, in the experiment on SNB-75 CNS and in the experiment with ACHN renal was above 100 µM throughout.
Consider `COC(=O)C(=O)C(C#N)c1nc2ccccc2s1` (stereo not drawn), for which the TGI in the experiment with MOLT-4 leukemia, with SF-295 CNS, with LOX IMVI melanoma, with HCT-116 colon, in the experiment with SNB-75 CNS and with ACHN renal was above 100 µM each time.
